Experimental data from a melting point compilation (Tetko et al.; mined from patent text by program, amines drawn as free bases though some values may be those of a salt).

| SMILES | melting point |
| --- | --- |
| Cc1csc(C(=O)O)c1NC(=O)OC(C)(C)C | 179 to 180 °C |
| N=C(N)c1ccccc1-c1ccccc1 | 148 to 150 °C |
| Cc1oc2c(NC(=O)c3c(Cl)ccc(Cl)c3C(=O)O)cccc2c1C | 186 to 188 °C |
| Brc1cn2c(Br)cnc2c(Br)n1 | 161 °C |
| CCCn1c(=O)c2c(nc(/C=C/c3ccc(Cl)cc3)n2C)n(CCC)c1=O | 175 to 187 °C |
| CC(COc1ccc(O)c(C(N)=O)c1)NCc1ccccc1 (stereo unspecified) | 102 to 104 °C |
| COC1(C)CCc2c(C)c(OC(C)=O)c(C)c(C)c2O1 (stereo unspecified) | 71 to 72.5 °C |
| O=C(O)c1cc(-n2c(-c3ccccc3)cc3c2CCCC3)c(C(F)(F)F)cc1O | 188 to 190 °C |
| COc1cc(C(C)C)ccc1C1(Cl)C(=O)c2cccc([N+](=O)[O-])c2C1=O (stereo unspecified) | 81 to 84 °C |
| CC(C)n1nc(-c2sc(C(=O)N3CCOCC3)nc2-c2ccccc2)ccc1=O | 162 °C |
| CC(=O)c1ccc(NCCCN2CCC(c3noc4cc(F)ccc34)CC2)c(O)c1 | 150 to 152 °C |
| O=C(O)CC(NC(=O)OCc1ccccc1)C(=O)CNS(=O)(=O)CCc1ccccc1 (stereo unspecified) | 100 to 101 °C |
| NC(=O)N(O)Cc1cccs1 | 112 °C |
| COc1ccc(NC(C)=O)c(O)c1C(C)=O | 160 to 162 °C |
| CC(C)(C)NC(=S)c1nn(-c2ccc(F)cc2F)c2c1C1CCC2C1 (stereo unspecified) | 148 to 150 °C |
| Oc1nc2ncnn2c(O)c1-c1c(F)cc(F)cc1F | 200 to 201 °C |
| O=C(O)c1ccc(-c2cc(-c3ccccc3)no2)cc1 | > 300 °C |
| COC(=O)CCNC(=O)c1ccc2c(c1)nc(-c1ccc(C(=N)N)cc1)n2CCCCc1ccccc1 | 184 to 186 °C |
| CC(C)C(NC(=O)c1ccc(C(=O)NC(CCC(=O)O)C(=O)O)cc1)C(=O)N1CCCC1C(=O)NC(C(=O)C(F)(F)F)C(C)C (mixture of isomers) | 74 to 76 °C |
| OCC1Oc2cccc(F)c2OC1CO (stereo unspecified) | 122 to 124 °C |
| COc1ccc(-c2coc3ccc(-c4nnc(SC)o4)cc23)cc1 | 156 to 157 °C |
| CN1C(=O)C(=Cc2cc(C(C)(C)C)c(O)c(C(C)(C)C)c2)SC1O (stereo unspecified) | 165 to 170 °C |
| CCOC(=O)c1cc(Cl)cc(NCS(=O)(=O)c2ccc(Cl)cc2)c1Cl | 173 to 175 °C |
| CNC(=S)NS(=O)(=O)c1cc(CCNC(=O)c2cnc3ccccc3c2)ccc1OCCOCC(F)(F)F | 115 to 120 °C |

| SMILES | melting point |
| --- | --- |
| COc1cc(COc2nn(-c3ccccc3)cc2/C=C/c2nnco2)ccc1OCc1nc(-c2ccco2)oc1C | 162 to 163 °C |
| CCCN(c1ccncc1)n1ccc2cc(OC(=O)NCc3ccccc3)ccc21 | 156 to 158 °C |
| CNC(=O)c1cc(O)cc2c1N(C)C1N(C)CCC21C (stereo unspecified) | 202 to 204 °C |
| O=C(CC1CCCC1)Nc1ccc2cccc(O)c2c1 | 162 to 165 °C |
| CCC(=O)NCc1ccc2ccn(C3CCN(CCc4ccccc4F)CC3)c2c1 | 118 to 119 °C |
| N=C(N)SCCc1ccc(Cl)c(Cl)c1 | 135 to 139 °C |
| COc1cccc(OC)c1CC(=O)N1C[C@@H]2C(=O)CCC(c3ccccc3)(c3ccccc3)[C@@H]2C1 (racemic) | 224 °C |
| N#CCc1nnc2n1-c1ccc(Cl)cc1C(c1ccccc1)=NC2 | 198 to 201 °C |
| Cc1ccc2c(c1)Nc1ncccc1NC2=O | 286 to 288 °C |
| Cn1c(=O)oc2c3ncccc3c(Cl)cc21 | 219 to 221 °C |
| CN(CCOc1ccc(CCCC2OC(=O)NC2=O)cc1)c1ccccn1 (stereo unspecified) | 126 to 127 °C |
| NC(=O)N(O)CCNC(=O)c1ccc(Oc2ccccc2)cc1 | 185 to 186 °C |
| CCc1nnc(NC(=O)C2c3ccccc3Oc3ccccc32)o1 | 256 to 257 °C |
| O=C(O)c1cc(SCc2ccsc2)c(-c2ccccc2)c([N+](=O)[O-])c1 | 159 to 161 °C |
| O=C(CS(=O)(=O)N1CC=C(c2ccc(-c3ccccc3)cc2)CC1)NO | 216 to 218 °C |
| CCCc1c(C(=O)C(C)C)c2ccc(C(=O)O)cc2n1Cc1ccccc1OC | 190 to 191 °C |
| O=C1CCN(Cc2cnc(Nc3n[nH]c4ccc(-c5ncccc5Cl)cc34)s2)CC1 | 187 to 188 °C |
| O=c1oc2cccnc2n1CCCN1CCN(c2cccc(C(F)(F)F)c2)CC1 | 62 to 63 °C |
| O=C1[C@@H]2C[C@H](Oc3ccc(Br)cc3)CN2C(=O)N1c1cc(Cl)cc(Cl)c1 | 116 °C |
| OC1CCC(Oc2ccc3[nH]ncc3c2)CC1 (stereo unspecified) | 112 to 118 °C |
| OC(CNC12N=CN=CC1=NC=N2)CN1CCN(C(c2ccc(F)cc2)c2ccc(F)cc2)CC1 (stereo unspecified) | 140 to 170 °C |
| N#CCC(=O)OC(COc1ccc(C(=O)c2ccccc2)c(O)c1)COc1ccc(C(=O)c2ccccc2)c(O)c1 | 167 to 168 °C |
| CCN(CC)CCNC(=O)c1cc(Cl)c(N)cc1OC(C)C(C)=NO (stereo unspecified) | 113 to 115 °C |
| FC(F)(F)c1ccc(-c2cc(Oc3ccc4cccnc4c3)ncn2)cc1 | 178 to 180 °C |

| SMILES | melting point |
| --- | --- |
| O=S(=O)(Nc1cc(Cl)cc(Cl)c1)c1cc(S(=O)(=O)Nc2cc(Cl)cc(Cl)c2)c2cc(O)ccc2c1 | 122 to 124 °C |
| Cc1nc(N)nc(N)c1-c1cc(N)ccc1Cl | 117 to 121 °C |
| NCCC(O)(c1ccc(-c2ccccc2)cc1)c1ccc(-c2ccccc2)cc1 | 176 to 178 °C |
| CCS(=O)(=O)N(C)Cc1ccc2[nH]cc(CCCN3CCN(c4ncncc4OC)CC3)c2c1 | 113 to 115 °C |
| C=CCOc1noc2ccc(N3C(=O)C4=C(CCCC4)C3=O)cc12 | 88 to 89 °C |
| CCCCOc1cc(C(=O)O)cc(S(N)(=O)=O)c1-c1ccccc1 | 129 to 131 °C |
| COc1cc([N+](=O)[O-])c2c3c(c4ccccc4nc13)C=CN2 | 220 to 223 °C |
| Cc1cccc(NC(=O)NC2N=C(c3ccccc3F)c3ccccc3N(Cc3nc4ccccc4o3)C2=O)c1 (racemic) | 209 to 210 °C |
| CCCCOC(=O)c1c(-c2ccncc2)[nH]c(-c2ccncc2)c1C | 182 to 186 °C |
| COc1cccc(-c2nc(NO)nc(Nc3cccc([N+](=O)[O-])c3)n2)c1 | 197 to 198 °C |
| CN(C)C=NS(=O)(=O)c1cccc(Br)c1 | 122 °C |
| CCOC(=O)c1cn(-c2nccs2)c2nc(N3C[C@@H](NC)[C@H](OC)C3)ccc2c1=O (relative stereo) | 73 to 76 °C |
| CCn1c(C(C)C)cc(-c2ccc(F)cc2)c1-c1ccccc1 | 110 °C |
| OC1(c2ccc(Cl)cc2)CCN(CCCc2nnc3n2CCCCC3)CC1 | 163 °C |
| COc1cc(Nc2nccc(-c3ccc(N4CCN(CCO)CC4)nc3)n2)cc(OC)c1OC | 156 to 157 °C |
| O=C(O)CC(C(=O)NC(CO)Cc1ccccc1)C1(c2ccc(-c3ccccc3)cc2)C=CNC1 (stereo unspecified) | 151 to 154 °C |
| CN(Cc1cc2c3c(c1)c(=O)c(C(=O)NCc1ccc(Cl)cc1)cn3CC(=O)N2C)C[C@@H](O)c1cc2ccccc2o1 | 86 to 87 °C |
| Cc1ccc(CC(CS)C(=O)Nc2cccc(C(=O)O)c2)cc1 (stereo unspecified) | 188 to 190 °C |
| O=C(c1ccc(O)cc1)c1sc2ccc(O)cc2c1-c1ccccc1 | 152 to 153 °C |
| CCOc1ccccc1COc1ccc2c(c1)C=C(C(=O)O)CCS2(=O)=O | 158 to 160 °C |
| COc1ccc(-c2nn3c(SC)nnc3c3ccccc23)cc1 | 218 to 220 °C |
| CC(C)(CCCCCCNS(=O)(=O)c1ccc(Cl)cc1)C(=O)O | 95 to 96 °C |
| COc1ccc2c(c1)C(C(=O)N(Cc1ccc(CO)cc1)c1ccc(C(C)C)cc1)CCC2 (stereo unspecified) | 143 °C |
| CCCCCCCCC(O)CNCCCNCC(O)CCCCCCCC (stereo unspecified) | 104 to 108 °C |

| SMILES | melting point |
| --- | --- |
| Cc1nc(N)sc1-c1ccnc(CC2CC2)n1 | 198 to 200 °C |
| CCCNC(=O)c1ccc(CCCc2cc(S(C)(=O)=O)ccc2OCc2ccccc2)cc1 | 121 °C |
| COc1ccc(OCCCCl)c(C2(SC)Sc3ccccc3N(C)C2=O)c1 (stereo unspecified) | 135 to 137 °C |
| O=C(CCC12CCC(=O)N1C(=O)CC2)OCc1ccccc1 | 80 to 82 °C |
| CC1(O)CSC(=S)N1c1ccc(Cl)cn1 (stereo unspecified) | 95 °C |
| CNC(=S)n1nc(Nc2ccccc2)nc1N | 196 to 198 °C |
| C=CCOc1ccc(-c2nc3ccccc3o2)cc1 | 95 to 96 °C |
| O=C(CCl)N(CCc1[nH]c2ccccc2c1-c1ccccc1)CC1CC1 | 104 to 106 °C |
| C=C(Nc1nc(-c2ccccc2)c(-c2nc3ccccc3c(=O)n2-c2ccc(Cl)cc2)s1)c1ccco1 | 270 to 274 °C |
| COC(=O)C1(n2c(=O)[nH]c3ccccc3c2=O)CCCC1 | 164 to 165 °C |
| CCOC(=O)C(C(=O)C(C)C)C(c1ccc(F)cc1)c1ccccn1 (stereo unspecified) | 106 to 108 °C |
| CS(=O)(=O)c1ccc(-c2cnn(-c3ccc(F)c(F)c3)c(=O)c2OCCC2CCCC2)cc1 | 100 to 101 °C |
| CCOC(=O)c1cc2c(=O)ccoc2nc1C(=O)OCC | 71 to 72 °C |
| COc1ccc(CN(CC(=O)OC(C)(C)C)S(=O)(=O)c2ccc3c(Cl)cnc(Cl)c3c2)cc1 | 117 to 118 °C |
| CCCCc1nc(Cl)c(C(=O)N2CCCC2)n1Cc1ccc2oc(-c3ccccc3-c3nnn[nH]3)c(Br)c2c1 | 120 to 122 °C |
| CCOC(=O)Cc1c(C(=O)O)c(C)c(C(=O)c2ccc(C)cc2)n1C | 200 to 202 °C |
| O=C(O)c1cc(N=Nc2cc(C(=O)O)cc(SCc3ccccc3)c2C(=O)c2ccccc2)c(C(=O)c2ccccc2)c(SCc2ccccc2)c1 | 218 to 220 °C |
| CN(N)c1nc2ccccc2s1 | 137 to 139 °C |
| Cc1c(NC(=O)CC(C)(C)C)cc2c(c1C)OC(C)(C)C2c1cccs1 (stereo unspecified) | 137 to 138 °C |
| O=C(C#Cc1ccc(-c2ccc(Cl)cc2)cn1)Nc1ccc(CN2CCC(O)CC2)cc1 | 186 to 190 °C |
| C#CC1(O)CCC2(C)C(CCC3C2CCC2(C)C(C(=O)CSCCO)CCC32)C1 (stereo unspecified) | 122 to 126 °C |
| N=C(Nc1ccc(Cl)cc1)NC1CC2C3CC4C2C4C13 (stereo unspecified) | 170 to 171 °C |
| CN(C)C1=NCc2ccc(Cl)cc2O1 | 118 to 120 °C |
| CC(O)C(CO)(Cc1cc(C(C)(C)C)c(O)c(C(C)(C)C)c1)Cc1cc(C(C)(C)C)c(O)c(C(C)(C)C)c1 (stereo unspecified) | 145 to 150 °C |
